Patent US5137889A, “Dihydropyridine derivatives and process for preparing the same” (Otsuka Pharmaceutical Co., Ltd., priority 1983, dated 1992)
Where two headings read alike, the source gives them in different places.

Experiments:
[1] = target: T1, Calmodulin-cyclic-AMP phosphodiesterase (Bos taurus, UniProt P62157); test: Calmodulin-cyclic-AMP phosphodiesterase inhibitory activity (presence of calmodulin); type: biochemical, bovine
T1 construct: tissue Amano & Co. (calmodulin only); host or cells: phosphodiesterase: bovine heart, partially purified; calmodulin: bovine brain
Source text: (1) Calmodulin: A calmodulin product manufactured by Amano & Co., which was isolated from the brain of bovine, and purified so as to be considered as a single substance with respect to SDS-page (polyacrylamide gel electrophoresis) method.
(§1) (2) Calmodulin-dependent cyclic-AMP phosphodiesterase (EC 3.1.4.17): An enzyme substance isolated from the heart of bovine and purified partially by a method of modified version of the disclosure in H. C. Ho, T. S. Teo, et al.: "Biochim. Biophys. Acta", 429, 461 (1976).
(§2) (3) 5'-Nucleotidase (EC 3.1.3.5): Grade IV substance (isolated from Crotalus adamanteus venom) manufactured by Sigma & Co.
(§3) (4) Others: Remainder of the reagents used in the test were those of reagent grade chemicals manufactured by Wako Pure-Chemical Industries, Ltd.
(§4) Calmodulin inhibitory activity of each of the test compounds was measured by a method of modified version of the disclosure in T. S. Teo and T. H. Wang: "J. Bio. Chem.", 248, 588 (1973).
(2) Calmodulin: One unit thereof stimulates 0.015 activated unit of cyclic-AMP phosphodiesterase to 50% of the maximum activity of the enzyme.
(§5) (3) 5'-Nucleotidase: One unit thereof hydrolyzes 1.0 micromole of inorganic phosphorus from adnosine 5'-monophosphate per minute at pH 9.0 at 37° C.
(1) Calmodulin-cyclic-AMP phosphodiesterase inhibitory activity:
40 mM of Imidazol, 20 mM of MgCl2, 20 mM of CaC12, 0.008 unit of cyclic-AMP phosphodiesterase, 1.0 unit of calmodulin, 0.2 unit of 5'-nucleotidase and 1.0 ml of 10 mM-tris(hydroxymethyl)aminomethane/HCl buffer solution (pH 7.0) containing 0.5 mM of cyclic-AMP were mixed together, and reacted at 30° C. for 30 minutes. Each of the test compounds was dissolved in methanol or N,N-dimethylformamide as the solvent, provided that the quantity of the solvent was not exceed 2% of the total amount of the mixture. After the reaction was completed, the reaction mixture was ice-cooled, and 0.5 ml each of aqueous solutions of 16.5%-trichloroacetic acid, 1%-thiourea, 3%-ammonium ferrous sulfate were respectively added to the reaction mixture. Further, 0.15 ml of 4.4%-ammonium molibdate solution was added to the mixture and the whole of the mixture was stirred, and was centrifuged at 3,000 r.p.m. for 10 minutes. Then, the centrifuged mixture was allowed to stand at a room temperature for 20 minutes. The OD660 nm (optical density at 660 nm) was measured.

[2] = target: T2, Cyclic-AMP phosphodiesterase (Bos taurus, UniProt P14100); test: Cyclic AMP phosphodiesterase inhibitory activity (absence of calmodulin, EGTA in place of CaCl2); type: biochemical, bovine; conditions: 1 mM EGTA in place of CaCl2; 3 hours
T2 construct: from tissue; host or cells: bovine heart, partially purified
Source text: as §1, §2, §3, §4, §5
(2) Cyclic AMP phosphodiesterase inhibitory activity:
The reaction was conducted by a method similar to that described in (1) as mentioned above, except that 1 mM of EGTA [ethylene glycol-bis(β-amino ethyl ether)-N,N-tetraacetic acid] was used in place of 20 mM of CaCl2. The reaction was conducted for 3 hours.

[3] = tested on: SHR-rats (spontaneously hypertensive rats); conditions: 30 mg/kg p.o.
Protocol: Systolic blood pressures and heart beat of SHR-rats (spontaneously hypertensive rats) were determined by a "tail cuff method". Thus the test animal was placed in a thermostat chamber (Type: FR-12RS, manufactured by Isuze & Co.) and was warmed at 40° C. for 15 minutes so as to vasodilate the tail arteria, the systolic blood pressures were measured by an electro sphygmomanometer (Type: PE-300, manufactured by Narco-Biosystems, Inc.) and recorded by an ink-writing recorder (Type: RECTI-HORIZ 8s, manufactured by San-Ei Instrument & Co.). The experiments were conducted under non-anesthetized and semi-confinement conditions. The test compound was orally administered forcedly by using a sonde for oral administration. The test compound was suspended in 0.15%-gum arabic powder aqueous solution so as to make the quantity of the test compound to 2.5 ml/kg. The test animal was not fasted, and the systolic blood pressures (mm-Hg) were measured before the administration (hereinafter referred to as "PRE") and after the administration (8, 24, 30, 48, 54 and 72 hours after the administration) of the test compound. The data of systolic blood pressure measured before the administration are shown in absolute value of mmHg, and the data measured after the administration are shown in the differences from the absolute values.

[4] = with calmodulin and CaCl2, pH 7.0, 30° C., 30 minutes, read-out: Calmodulin-cyclic-AMP phosphodiesterase IC50 (converted)

T2 sequence (P14100 1-514 isoform P14100-2): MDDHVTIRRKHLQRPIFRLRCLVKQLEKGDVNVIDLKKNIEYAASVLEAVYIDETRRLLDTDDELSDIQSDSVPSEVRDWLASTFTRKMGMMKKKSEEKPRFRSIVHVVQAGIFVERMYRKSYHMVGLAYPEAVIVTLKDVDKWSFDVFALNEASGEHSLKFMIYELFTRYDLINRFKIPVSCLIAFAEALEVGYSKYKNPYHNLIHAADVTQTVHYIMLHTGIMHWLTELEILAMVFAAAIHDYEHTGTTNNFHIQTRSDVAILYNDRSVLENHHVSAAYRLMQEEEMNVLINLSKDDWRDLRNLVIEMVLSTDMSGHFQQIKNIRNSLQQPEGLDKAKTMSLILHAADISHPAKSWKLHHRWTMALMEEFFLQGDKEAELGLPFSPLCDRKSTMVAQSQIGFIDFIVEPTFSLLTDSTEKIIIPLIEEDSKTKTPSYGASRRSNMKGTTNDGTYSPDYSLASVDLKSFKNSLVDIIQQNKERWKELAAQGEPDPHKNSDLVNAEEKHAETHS

Compound | IC50 [1, 4] [µM] | IC50 [2] [µM] | further results
COC(=O)C1=C(C)NC(C)=C(C(=O)OC/C=C/c2ccc(O)c(Cl)c2)C1c1cccc([N+](=O)[O-])c1 (stereo not drawn) [Test Compound 11, Methyl 3-(3-chloro-4-hydroxyphenyl)-2(E)-propenyl 1,4-dihydro-2,6-dimethyl-4-(3-nitrophenyl)pyridine-3,5-dicarboxylate] | 10.6 | 200 | 
COC(=O)C1=C(C)NC(C)=C(C(=O)OCCN2CC=C(c3ccc(C)cc3)CC2)C1c1cccc([N+](=O)[O-])c1 (stereo not drawn) [Test Compound 17, Methyl 2-[4-(4-methylphenyl)-1,2,3,6-tetra-hydropyridyl]ethyl 1,4-dihydro-2,6-dimethyl-4-(3-nitrophenyl)pyridine-3,5-dicarboxylate] | 10.3 | > 188 | 
COC(=O)C1=C(C)NC(C)=C(C(=O)OC/C=C/c2ccco2)C1c1cccc([N+](=O)[O-])c1 (stereo not drawn) [Test Compound 10, Methyl 3-furyl-2(E)-propenyl 1,4-dihydro-2,6-dimethyl-4-(3-nitrophenyl)pyridine-3,5-dicarboxylate] | 3.54 | > 228 | 
COC(=O)C1=C(C)NC(C)=C(C(=O)OC/C=C/c2ccc(O)cc2)C1c1ccc(Cl)cc1Cl (stereo not drawn) [Test Compound 24, Methyl 3-(4-hydroxyphenyl)-2(E)propenyl 1,4-dihydro-2,6-dimethyl-4-(2,4-dichloro-phenyl)pyridine-3,5-dicarboxylate] | 5.02 | 30.7 | 
COC(=O)C1=C(C)NC(C)=C(C(=O)OC/C=C/c2ccc(O)cc2)C1c1ccccc1 (stereo not drawn) [Test Compound 18, Methyl 3-(4-hydroxyphenyl)-2(E)-propenyl 1,4-dihydro-2,6-dimethyl-4-phenylpyridine-3,5-dicarboxylate] | 16.2 |  | 
COC(=O)C1=C(C)NC(C)=C(C(=O)OC/C=C/c2ccc(OC)cc2)C1c1cccc([N+](=O)[O-])c1 (stereo not drawn) [Test Compound 8, Methyl 3-(4-methoxyphenyl)-2(E)-propenyl 1,4-dihydro-2,6-dimethyl-4-(3-nitrophenyl)-pyridine-3,5-dihydrocarboxylate] | 5.64 |  | 
COC(=O)C1=C(C)NC(C)=C(C(=O)OC/C=C/c2ccccc2)C1c1cccc([N+](=O)[O-])c1 (stereo not drawn) [Test Compound 2, Methyl 3-phenyl-2(E)-propenyl 1,4-dihydro-2,6-dimethyl-4-(3-nitrophenyl)pyridine-3,5-dicarboxylate] | 5.57 |  | 
COC(=O)C1=C(C)NC(C)=C(C(=O)OC/C=C/c2ccc(OC(C)=O)cc2)C1c1cccc([N+](=O)[O-])c1 (stereo not drawn) [Test Compound 16, Methyl 3-(4-acetyloxyphenyl)-2(E)-propenyl 1,4-dihydro-2,6-dimethyl-4-(3-nitrophenyl)-pyridine-3,5-dicarboxylate] | 5.92 |  | 
COC(=O)C1=C(C)NC(C)=C(C(=O)OCCN(C)Cc2ccccc2)C1c1cccc([N+](=O)[O-])c1 (stereo not drawn) [Test Compound 26, Methyl 2-(N-methyl-N-benzylamino)ethyl 1,4-dihydro-2,6-dimethyl-4-(3-nitrophenyl)pyridine-3,5-dicarboxylate, reference compound] |  |  | IC50 [1]: 13 µM
COC(=O)C1=C(C)NC(C)=C(C(=O)OC/C=C/c2ccc(O)c(OC)c2)C1c1cccc([N+](=O)[O-])c1 (stereo not drawn) [Test Compound 7, Methyl 3-(3-methoxy-4-hydroxyphenyl)-2(E)-propenyl 1,4-dihydro-2,6-dimethyl-4-(3-nitrophenyl)pyridine-3,5-dicarboxylate] | 10.5 |  | 
COC(=O)C1=C(C)NC(C)=C(C(=O)OC/C=C/c2ccc(O)cc2)C1c1ccc(OC)c(OC)c1 (stereo not drawn) [Test Compound 20, Methyl 3-(4-hydroxyphenyl)-2(E)-propenyl 1,4-dihydro-2,6-dimethyl-4-(3,4-dimethoxy-phenyl)pyridine-3,5-dicarboxylate] | 6.67 | 62.6 | 
COC(=O)C1=C(C)NC(C)=C(C(=O)OC/C=C/c2cccc(O)c2)C1c1cccc([N+](=O)[O-])c1 (stereo not drawn) [Test Compound 25, Methyl 3-(3-hydroxyphenyl)-2(E)propenyl 1,4-dihydro-2,6-dimethyl-4-(3-nitrophenyl)-pyridine-3,5-dicarboxylate] | 1.94 | 53 | 
COC(=O)C1=C(C)NC(C)=C(C(=O)OC/C=C/c2ccc(O)cc2)C1c1ccccc1C (stereo not drawn) [Test Compound 19, Methyl 3-(4-hydroxyphenyl)-2(E)-propenyl 1,4-dihydro-2,6-dimethyl-4-(2-methylphenyl)-pyridine-3,5-dicarboxylate] | 13.4 |  | 
COC(=O)C1=C(C)NC(C)=C(C(=O)OCCN2CCN(CC#Cc3ccccc3)CC2)C1c1cccc([N+](=O)[O-])c1 (stereo not drawn) [Test Compound 23, Methyl 2-[4-(3-phenyl-2-propynyl)-1-piperazinyl]ethyl 1,4-dihydro-2,6-dimethyl-4-(3-nitrophenyl)pyridine-3,5-dicarboxylate] | 14.3 | > 179 | 
COC(=O)C1=C(C)NC(C)=C(C(=O)OC/C=C/c2nnnn2C)C1c1cccc([N+](=O)[O-])c1 (stereo not drawn) [Test Compound 9, Methyl 3-(1-methyl-1,2,3,4-tetrazol-5-yl)-2(E)-propenyl 1,4-dihydro-2,6-dimethyl-4-(3-nitrophenyl)pyridine-3,5-dicarboxylate] | 11.7 | 79.2 | 
COC(=O)C1=C(C)NC(C)=C(C(=O)OCC#Cc2cccs2)C1c1cccc([N+](=O)[O-])c1 (stereo not drawn) [Test Compound 22, Methyl 3-(2-thienyl)-2-propynyl 1,4-dihydro-2,6-dimethyl-4-(3-nitrophenyl)pyridine-3,5-dicarboxylate] | 2.43 | > 221 | 
COC(=O)C1=C(C)NC(C)=C(C(=O)OC/C=C/c2ccc(O)cc2)C1c1ccccc1C(F)(F)F (stereo not drawn) [Example 14] | 12.8 |  | 
methyl 3-[4-(2-tetrahydropyranyloxyphenyl)]-2-propynyl 1,4-dihydro-2,6-dimethyl-4-(3-nitrophenyl)pyridine-3,5-dicarboxylate [Example 3] |  |  | Blood pressure after the administration, 24 hours (difference from the absolute value before administration) [3]: -31.0 mm-Hg; Blood pressure after the administration, 30 hours (difference from the absolute value before administration) [3]: -30.8 mm-Hg; Blood pressure after the administration, 48 hours (difference from the absolute value before administration) [3]: -15.6 mm-Hg; Blood pressure after the administration, 54 hours (difference from the absolute value before administration) [3]: -12.6 mm-Hg
methyl 3-(4-tetrahydropyranyloxyphenyl)-2(E)-propenyl 1,4-dihydro-2,6-dimethyl-4-(3-nitrophenyl)pyridine-3,5-dicarboxylate [Example 1] |  |  | Blood pressure after the administration, 8 hours (difference from the absolute value before administration) ([3]; 8 hours): -20.3 mm-Hg; Blood pressure after the administration, 24 hours (difference from the absolute value before administration) [3]: -41.0 mm-Hg; Blood pressure after the administration, 24 hours (difference from the absolute value before administration) ([3]; listed as 6): +1.8 mm-Hg; Blood pressure after the administration, 30 hours (difference from the absolute value before administration) [3]: -52.0 mm-Hg; Blood pressure after the administration, 48 hours (difference from the absolute value before administration) [3]: -26.5 mm-Hg; Blood pressure after the administration, 54 hours (difference from the absolute value before administration) [3]: -19.8 mm-Hg; Blood pressure after the administration, 72 hours (difference from the absolute value before administration) ([3]; 72 hours): -12.5 mm-Hg
COC(=O)C1=C(C)NC(C)=C(C(=O)OC/C=C/c2ccccc2O)C1c1cccc([N+](=O)[O-])c1 (stereo not drawn) [Test Compound 13, Methyl 3-(2-hydroxyphenyl)-2(E)-propenyl 1,4-dihydro-2,6-dimethyl-4-(3-nitrophenyl)-pyridine-3,5-dicarboxylate] | 3.55 |  | 
COC(=O)C1=C(C)NC(C)=C(C(=O)OC/C=C/C=C/c2ccc(O)cc2)C1c1cccc([N+](=O)[O-])c1 (stereo not drawn) [Test Compound 3, Methyl 5-(4-hydroxyphenyl)-2(E),4(E)-pentadienyl 1,4-dihydro-2,6-dimethyl-4-(3-nitrophenyl)-pyridine-3,5-dicarboxylate] | 1.73 |  | 
